Laboratory results from patent publication US12018029B2, “Hexahydropyrrolo[3,4-c]pyrrole derivatives useful as LOX inhibitors” (THE INSTITUTE OF CANCER RESEARCH: ROYAL CANCER HOSPITAL, priority 2018, dated 2024).
Where two headings read alike, the source gives them in different places. Values belong to the compound of their own block, whether it stands above or below them.

Tests used:
[1] = biological target: T1, LOX (Mus musculus, UniProt P28301); assay: LOX activity in cysts assay (roGFP2 LOX biosensor in MDCK cysts); assay type: cell-based; conditions: for IC50: read-out: LOX biosensor IC50 (cyst); for inhibition at 10 µM: read-out: LOX biosensor inhibition (cyst) @ 10 μM
T1 construct: Full length LOX cDNA was then PCR cloned into pEGFP-N1 (Clonetech), or biosensor vector proGFP2-N1; expressed in transfected cells; host or cells: MDCK cells grown as cysts on Matrigel
T1 sequence (P28301 163-411): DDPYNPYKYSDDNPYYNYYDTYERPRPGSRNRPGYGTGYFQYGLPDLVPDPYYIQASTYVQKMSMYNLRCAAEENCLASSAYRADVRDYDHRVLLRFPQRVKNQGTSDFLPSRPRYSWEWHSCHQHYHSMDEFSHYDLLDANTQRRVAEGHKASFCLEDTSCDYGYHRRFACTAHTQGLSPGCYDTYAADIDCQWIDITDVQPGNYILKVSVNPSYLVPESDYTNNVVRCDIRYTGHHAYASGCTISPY
Experimental: LOX Activity in Cysts Assay (Tang et al, 2017).
Cell Culture and Transfection
Cell lines were purchased from American Type Culture Collection (ATCC). […] MDCK cell lines were cultured in Dulbecco's Modified Eagle Medium (DMEM):F12 media supplemented with 10% foetal bovine serum (FBS) and 1% Penicillin Streptomycin solution (Pen Strep). Cells were incubated at 37° C. in a humidified incubator with 5% CO2. Lipofectamine 3000 or lentivirus was used to transfect MDCK cells with GFP constructs and cells were selected with G418 (Life Technologies) at 5 mg/ml. Cell culture reagents were purchased from Life Technologies.
To produce MDCK cysts, cells were cultured on Matrigel (Corning) with 2% Matrigel supplemented in DMEM with 10% FBS. Cysts were allowed to form for 10 days before subsequent studies.
Cloning of LOX Expression Constructs
Mouse LOX cDNA was purchased from OriGene. Full length LOX cDNA was then PCR cloned into pEGFP-N1 (Clonetech), or biosensor vector proGFP2-N1 (Hanson, 2004) using the following primers, […] (forward primer) and […] (reverse primer). For the insertion into pEGFP-N1 or proGFP2-N1, NheI and XhoI restriction sites were added to forward and reverse primers accordingly. Mutant LOX constructs were made using QuickChange II site-directed mutagenesis kit (Agilent Technologies) following manufacture's protocol using LOX-GFP as template. To generate, roGFP2 versions of LOX mutant constructs, LOX mutant cDNA was transferred from pEGFP-N1 to proGFP2-N1 using NheI and XhoI.
Confocal Imaging and Imaging Analysis
Photomicrographs of live MDCK cysts with a Leica TCS SP8 X confocal system were used to image the biosensor. The oxidised biosensor was excited using a 405 nm laser, while the reduced biosensor was excited with a 488 nm laser. Emission of the biosensor was recorded at 500 nm˜530 nm range using sequential scans. Ratio images were generated following a published protocol {Kardash, 2011 #376}. Note, while the published protocol generates YFP/CFP ratio images, we used it to generate Oxidised/Reduced (roGFP2 ratio) ratio images. The roGFP2 ratio at the basal surface of MDCK cysts was used to indicate LOX inhibition. LOX inhibitors were added 30 min prior to imaging.
The inhibition of LOX in cysts treated with LOX inhibitors compared to control (DMSO vehicle treated) cysts is shown in Table 2. For clarity, readout for DMSO treated cysts represents 0% inhibition (no inhibition) and readout for BAPN at 1 mM is used as 100% inhibition (full inhibition).

[2] = test system: PDAC KPC TRP53 R172H (p53 mut) cells; assay: PDAC allograft, primary tumour, R172H (p53 mut); assay type: in vivo, mouse; conditions: ratio of average tumour volume treated/vehicle; 200 mg/kg po qd; p<0.05
Experimental: (§1) All procedures involving animals were approved by the Animal Welfare and Ethical Review Body of the Institute of Cancer Research and Cancer Research UK Manchester Institute in accordance with National Home Office regulations under the Animals (Scientific Procedures) Act 1986 and according to the guidelines of the Committee of the National Cancer Research Institute Tumour size was determined by caliper measurements of tumour length, width and depth and volume was calculated as volume=0.5236×length×width×depth (mm).
PDAC allografts: CD1 nu/nu female mice at 6 weeks of age were inoculated subcutaneously in the right flank with 2×10^6 PDAC KPC TRP53 R172H (p53 mut) cells at 100 ul suspension per animal. […] Tumours and weights are measured twice weekly using calipers. […] Frozen samples kept at −80 degree centigrade until being analysed and the fixed samples stained according to the desired marker.
(§2) For therapeutic efficacy assessment, the ratio of average tumour volume between compound treated and vehicle control treated (T/C) is calculated. […] The efficacy of LOX inhibitors described in this invention, as measured by T/C in a pancreatic cancer model, a colorectal cancer model and a breast cancer model is shown in Table 3 and is significant (p<0.05) for all the data presented.

[3] = test system: PDAC KP^flC (LOX H1 clone) cells; assay: PDAC allograft, primary tumour, p53 wt, LOX o/e; assay type: in vivo, mouse; conditions: ratio of average tumour volume treated/vehicle; 200 mg/kg po qd; p<0.05
[4] = test system: SW620 human colorectal carcinoma cells (mutant RAS); assay: SW620 xenografts, primary tumour; assay type: in vivo; conditions: ratio of average tumour volume treated/vehicle; 200 mg/kg po qd; p<0.05
Experimental: as §1
SW620 xenografts: NCr mice were inoculated subcutaneously in the right flank with 5×10^6 SW620 cells at 100 ul suspension per animal. Groups of 7-8 mice were assigned to treatment following stratified allocation of tumour volumes with a median size of circa 100 mm^3. […] Tumours and weights are measured twice weekly using calipers. […] Frozen samples are kept at −80 degree centigrade until being analysed and the fixed samples stained according to the desired marker.
as §2

[5] = test system: MDA-MB-231 human breast adenocarcinoma; assay: MDA-MB-231 xenografts, primary tumour; assay type: in vivo; conditions: ratio of average tumour volume treated/vehicle; 200 mg/kg po qd; p<0.05
Experimental: as §1
MDA-MB-231 xenografts. […] Tumours and weights are measured twice weekly using calipers and the animals can be imaged using non-invasive method by bioluminescence using IVIS 200 imaging machine, weekly using 150 mg/kg luciferin administrate intraperitoneal or subcutaneous. […] Frozen samples kept at −80 degree centigrade until being analyzed and the fixed samples stained according to desired marker.
as §2

[6] = test system: MMTV-PyMT mammary tumours; assay: MMTV-PyMT transgenic mouse breast cancer model, primary tumour; assay type: in vivo, mice; conditions: ratio of average tumour volume treated/vehicle; @67 mpk po qd; p<0.05
Experimental: as §1
(§3) LOX Inhibitor Treatment of a Transgenic Mouse Breast Cancer Model
MMTV-PyMT (Guy et al, 1992) (FVB) female mice were randomized by non-statistical methods to LOX inhibitor treatment groups from day 70 post-birth, when animals had no detectable tumour. […] Tumour size was determined unblinded by caliper measurements of tumour length, width and depth and volume was calculated as 0.5236×length×width×depth (mm). […]
as §2

[7] = test system: MMTV-PyMT lung metastases; assay: MMTV-PyMT transgenic mouse breast cancer model, lung metastases; assay type: in vivo, mice; conditions: @67 mpk po qd, p<0.05
Experimental: as §3
MMTV-PyMT (Guy et al, 1992) (FVB) female mice were randomized by non-statistical methods to LOX inhibitor treatment groups from day 70 post-birth, when animals had no detectable tumour. Mice were treated daily by oral gavage with LOX inhibitor in vehicle, or daily vehicle (5% DMSO/2.5% Tween20 in water) by oral gavage. Tumour size was determined unblinded by caliper measurements of tumour length, width and depth and volume was calculated as 0.5236×length×width×depth (mm). In all experiments, mice were humanely killed and mammary tumours and lungs were collected when the primary tumours reached ethical limits or signs of ill health.
For lung metastases quantification, all mouse tissue samples were fixed in 10% formalin (Sigma) and embedded in paraffin. […] Lung metastases number was counted and area was measured using ImageScope. […] The ratio of average metastases surface between compound treated and vehicle control treated (T/C) is calculated. The ratio of average metastases numbers between compound treated and vehicle control treated (T/C) is also calculated. […] The antimetastatic efficacy of LOX inhibitors described in this invention, as measured by T/C in a model of breast cancer metastasizing to lungs is shown in Table 3 and is significant (p<0.05) for all the data presented.

[8] = 10 μM, MDCK cysts, DMSO = 0% inhibition, BAPN at 1 mM = 100% inhibition, inhibitors added 30 min prior to imaging

Compound: CCOc1ccc(N2C[C@H]3CN(C(=O)NCCO)C[C@H]3C2)cc1 [Example 1, cis-5-(4-Ethoxyphenyl)-N-(2-hydroxyethyl)hexahydropyrrolo[3,4-c]pyrrole-2(1H)-carboxamide]
IC50 ([1]; MDCK cysts): < 560 nM
T/C, PDAC (mouse pancreatic carcinoma) primary tumour a) R172H (p53mut) [2]: a) 0.54
T/C, PDAC (mouse pancreatic carcinoma) primary tumour b) p53wt, LOX o/e [3]: b) 0.35
T/C, SW620 human colorectal carcinoma cells (mutant RAS) - primary tumour [4]: 0.55
T/C, MDA-MB-231 human breast adenocarcinoma - primary tumour [5]: 0.29
T/C, MMT-PyMT breast transgenic model - primary tumour [6]: 0.3
T/C, MMT-PyMT breast transgenic model - metastases a) Count ([7]; ratio of average lung metastases numbers treated/vehicle): a) 0.14
T/C, MMT-PyMT breast transgenic model - metastases b) Area ([7]; ratio of average lung metastases surface treated/vehicle): b) 0.02

inhibition at 10 µM [1, 8]: 65%
Compound: CCOc1ccc(N2C[C@H]3CN(CCCC#N)C[C@H]3C2)cc1 [Example 2, cis-4-(5-(4-Ethoxyphenyl)hexahydropyrrolo[3,4-c]pyrrol-2(1H)-yl)butanenitrile]

Compound: CCOc1ccc(N2C[C@]3(C)CN(C(=O)NCCO)C[C@]3(C)C2)cc1 [Example 3, cis-5-(4-Ethoxyphenyl)-N-(2-hydroxyethyl)-3a,6a-dimethylhexahydropyrrolo[3,4-c]pyrrole-2(1H)-carboxamide]
IC50 ([1]; MDCK cysts): 1620 nM
inhibition at 10 µM ([1]; MDCK): 100%
T/C, PDAC (mouse pancreatic carcinoma) primary tumour a) R172H (p53mut) [2]: a) 0.58
T/C, PDAC (mouse pancreatic carcinoma) primary tumour b) p53wt, LOX o/e [3]: b) 0.42

inhibition at 10 µM [1, 8]: 100%
Compound: O=C(NC1CCCCC1)N1C[C@@H]2CN(c3ccc(N4CCS(=O)(=O)CC4)cc3)C[C@@H]2C1 [Example 9, cis-N-Cyclohexyl-5-(4-(1,1-dioxidothiomorpholino)phenyl)hexahydropyrrolo[3,4-c]pyrrole-2(1H)-carboxamide]

inhibition at 10 µM [1, 8]: 97%
Compound: CCOc1ccc(N2C[C@H]3CN(C(=O)Oc4ccc([N+](=O)[O-])cc4)C[C@H]3C2)cc1 [Example 18, 4-Nitrophenyl 5-(4-ethoxyphenyl)hexahydropyrrolo[3,4-c]pyrrole-2(1H)-carboxylate]

inhibition at 10 µM [1, 8]: 94%
Compound: C[C@@]12CN(C(=O)NCCO)C[C@]1(C)CN(c1ccc(N3CCN(S(C)(=O)=O)CC3)cc1)C2 [Example 28, cis-N-(2-Hydroxyethyl)-3a,6a-dimethyl-5-(4-(4-(methylsulfonyl)piperazin-1-yl)phenyl)hexahydropyrrolo[3,4-c]pyrrole-2(1H)-carboxamide]

inhibition at 10 µM [1, 8]: 59%
Compound: C[C@@]12CN(C(=O)NCCO)C[C@]1(C)CN(c1ccc(N3CCS(=O)(=O)CC3)cc1)C2 [Example 30, cis-5-(4-(1,1-Dioxidothiomorpholino)phenyl)-N-(2-hydroxyethyl)-3a,6a-dimethylhexahydropyrrolo[3,4-c]pyrrole-2(1H)-carboxamide]

inhibition at 10 µM [1, 8]: 100%
Compound: N#CCCCN1C[C@@H]2CN(c3ccc(N4CCS(=O)(=O)CC4)cc3)C[C@@H]2C1 [Example 32, cis-4-(5-(4-(1,1-Dioxidothiomorpholino)phenyl)hexahydropyrrolo[3,4-c]pyrrol-2(1H)-yl)butanenitrile]

inhibition at 10 µM [1, 8]: 100%
Compound: CCOc1ccc(N2C[C@H]3CN(C(=O)N4CCOCC4)C[C@H]3C2)cc1 [Example 37]

inhibition at 10 µM [1, 8]: 72%
Compound: CCOc1ccc(N2C[C@H]3CN(C(=O)N4CCC(C#N)CC4)C[C@H]3C2)cc1 [Example 42, 1-(cis-5-(4-ethoxyphenyl)octahydropyrrolo[3,4-c]pyrrole-2-carbonyl)piperidine-4-carbonitrile]
